This note sets out measurements from patent publication US20210070730A1, “H2S-BASED THERAPEUTIC AGENTS FOR THE TREATMENT OF NEURODEGENERATIVE DISEASES” (INTERNATIONAL SOCIETY FOR DRUG DEVELOPMENT S.R.L., priority 2017, published 2021).

Like-named read-outs stand apart in the source and are kept apart here. Marks after values point to notes of the source that are not given here.

The nature of series [1]: Amperometric determination of H2S release. It counts as physicochemical. Particulars: assay buffer, absence or presence of L-cysteine. On the procedure:
FIG. 1: Curves describe the increase of H2S concentration, with respect to time, following the incubation of GYY 4137, the H2S-prodrug MT66 in the assay buffer, in the absence (white symbol) or in the presence of L-cysteine (black symbol) or glutathione (black triangles). H2S was recorded by amperometry; the vertical bars indicate the SEM.
Amperometric Determination of H2S: The characterization of the H2S-generating properties of the new compounds was carried out by amperometric approaches through an Apollo-4000 Free Radical Analyzer (WPI) detector and H2S-selective minielectrodes. The procedure has been recently reported by us.
The H2S-releasing properties were evaluated both in the absence or in the presence of an organic thiol such as L-cysteine.

A further series relates to NMDAR. The series is described as follows: Displacement of specific [3H]MK-801 binding in rat cortex membranes. On the procedure: [^3H]MK-801 Binding Assay. Crude synaptic membranes were prepared from the cerebral cortex of Sprague-Dawley rats. The pellets were stored at −80° C. for at least 24 h, and washed three more times with Tris-HEPES buffer (Tris 4.5 mM, HEPES 5 mM, pH 7.4) to remove the endogenous amino acids before the binding assay. In the binding assay, 50 μL of membrane preparation (40-50 μg protein), and 10 μL of compound were mixed at 25° C. in the presence of […] L-glutamate (10 μM) and 50 μL of glycine (10 μM). Then, 50 μl of [^3H]MK-801 (final concentration 3 nM) were added to the preparation. Tris-HEPES buffer was added to a final volume of 0.5 mL. Following incubation time of 2 h at 25° C., binding was terminated by filtration […]. Radioactivity was measured using a PerkinElmer liquid scintillation counter. Nonspecific binding was determined in the presence of unlabeled 100 μM MK-801. […] For compound activity determination, aliquots of membrane pellets were incubated with different ligand concentrations of MT66 and reference drug (10 nM-10 μM) in the absence of presence of 4 mM Cysteine for 30 min, and then incubated with 3 nM [^3H]MK-801 for 2 h at 25° C. Samples were then filtered, and the radioactivity was counted.
Displacement of specific [^3H]MK-801 binding in rat cortex membranes in the absence or presence of cysteine (Cys). MT66 was tested to assess its abilities to inhibit native-target activity (i.e. NMDAR). Binding to specific receptors (such as NMDAR) has been assessed using the assay based on the displacement of [^3H]MK-801 [19]. The evaluation has been performed in the presence and in absence of Cys.

Series [2] relates to Human neuronal-like cells. In words: Neuroprotection in LPS/TNF-α challenged neuronal-like cells (MTS assay). It counts as cell-based. Particulars: 10 μM pre-treatment 24 or 72 h, then 50 μg/ml LPS and 50 ng/ml TNF-α 16 h. On the procedure:
FIG. 2: Neuroprotective effects. Human neuronal-like cells were treated with medium alone (CONTROL) or with the compounds (10 μM) for 24 h (light grey) or 72 h(dark grey); after drug removal, cells were incubated with 50 μg/ml LPS and 50 ng/ml TNF-α for an additional 16 h. At the end of treatment, cell proliferation was measured by MTS assay. The data are expressed as percentages relative to untreated cells (control), which were set at 100%, and represent the mean±SEM of three independent experiments, each performed in triplicate. Statistical significance was determined using a one-way ANOVA-Tukey HSD post hoc test: *P<0.05, ***P<0.001 vs. control; ##P<0.01, ###P<0.001 vs. cells treated with LPS-TNF-α.
Cell proliferation/viability assays: Following incubation time, cell viability was determined using the MTS assay according to the manufacturer's instruction. […] The absorbance of formazan at […] was measured in a colorimetric assay with an automated plate reader. The results were calculated by subtracting the mean background from the values obtained from each test condition, and are expressed as the percentage of the control (untreated cells).
Evaluation of neuroprotective effects. […] The effects of H2S prodrug under physiological conditions and under inflammatory stress exposure were assessed by measuring cellular viability.
A general note: Tetrazolium assays rely on reduction of a dye to a coloured formazan, in cell work by metabolically active cells.

The test system of series [3] is Human neuronal-like cells. The series is described as follows: ROS production in LPS/TNF-α challenged neuronal-like cells (DCFH2-DA). It counts as cell-based. Particulars: 10 μM pre-treatment 24 h, then LPS and TNF-α 16 h. On the procedure: FIG. 3. Effects induced on ROS production. Human neuronal-like cells were treated with medium alone (CONTROL) or the compound (10 μM) for 24 h; after drug removal, cells were incubated with 50 μg/ml LPS and 50 ng/ml TNF-α for an additional 16 h. At the end of treatment, ROS production was measured using the fluorogenic probe DCFH2-DA. The data are expressed as percentages relative to untreated cells (control), which were set at 100%, and represent the mean±SEM of two independent experiments, each performed in triplicate. Statistical significance was determined using a one-way ANOVA-Tukey HSD post hoc test: ***P<0.001 vs. control; ###P<0.001 vs. cells treated with LPS-TNF-α.
Mitochondria ROS generation: The generation of ROS was assessed by the fluorogenic probe DCFH2-DA (Molecular Probes, Invitrogen) in Neuronal-like cells, differentiated from H9-derived NSCs.). […] This nonfluorescent molecule is readily converted to a green-fluorescent form […] when the acetate group is removed by intracellular esterases and an oxidation by ROS occurs within the cell. […] Fluorescence increase was estimated in a plate reader at 485 nm (excitation) and 520 nm (emission) (Wallac, Victor 2, 1420 multilabel counter, PerkinElmer). The fluorescence values were normalized between samples for cell number content and assessed by a crystal violet cell staining assay. […]

Series [4] deals with Aβ(1-40) self-induced aggregation. The series is described as follows: Thioflavin T fluorescence assay of Aβ aggregation. Particulars: 10 μM pre-treatment 24 h, ThT fluorescence. It counts as cell-based. The protocol:
The Thioflavin T fluorescence assay. Thioflavin T (ThT) dye fluorescence was used to quantify the formation and inhibition of amyloid oligomers in the presence of anti-amyloidogenic compounds. The ThT stock solution was prepared by adding 8 mg ThT to 10 mL phosphate buffer (10 mM phosphate, 150 mM NaCl, pH 7.0) and filter through a 0.2 μm syringe filter. This stock solution should be stored in the dark and is stable for about one week. On the day of the analysis, the stock solution was diluted into PBS to obtain the concentration of 10 μM. The Aβ1-42 oligomers were prepared by diluting the stock solution in PBS and the dilution was shaking for 48 hours at 37° C. The cells were seeded in black 96-multiwell plate (3000 c/w) and treated with the compound MT66 and reference drug (10 μM) for 24 h. Following incubation time, cells were washed and incubated with Aβ1-42 oligomers for 24 h. After this time, 200 μl of ThT 10 μM were added to each well in the dark. The ThT fluorescence intensity of each sample was recorded every 5 min using a spectrophotometer by excitation at 355 nm and emission 535 nm.
Inhibition of Aβ(1-40) self-induced aggregation. The new compound was also tested to evaluate their ability to inhibit the Aβ(1-40) self-induced aggregation.

For another series, the system named is U87MG cells. The series is described as follows: Western blot of autophagy markers in U87MG cells. It is filed as cell-based, human. Particulars: 10 μM; for LC3II expression (LC3II/LC3I ratio) / p62 expression / p-mTOR expression (p-mTOR/mTOR ratio): 4 h; for LC3II expression: 24 h. The protocol:
FIG. 6. Western blot quantification of LC3II/LC3I ratio, p62, mTOR and Akt as hallmarks of the degree of ATG activation. […] (D) Western blot quantification of pAkt/Akt ratio in U87MG cells. Results represent mean±SEM of three different gels. *P<0.05, **P<0.01, ***P<0.001 versus vehicle treated cells (Control).
Western blot analysis. The human U-87MG cells were seeded in 6-well plates in a final volume of 2 ml/well at a density of 1×10^6/well and grown to 80% of confluence with standard medium (DMEM-High Glucose). Cells were treated with vehicle (0.1% DMSO) or test compounds (i.e. 10 μM Memantine or Memit and (1 μM) Rapamycin and incubated at 37° C. for 4 and 24 h. Treated cells were washed twice with PBS and lysed in Tris-buffered saline buffer-1% Triton-X100; NaCl 150 mM; Tris-HCl 20 mM; EDTA 1 mM; EGTA 1 mM; NaF 20 mM; Na4P2O7 25 mM; Na3VO4 1 mM; PMSF 1 mM; 8 μ/ml protein cocktail inhibitors (Sigma-Aldrich, Milan, Italy). Proteins (30-40 μg) were separated on Criterion TGX™ gel (4-20%) and transferred on Immuno-PVDF membrane (Bio-Rad, Milan, Italy) for 1 h. Blots were incubated for 12 h with diluted primary antibody [1:1000, LC3A/B; p62; mTOR, p-mTOR; Akt, p-Akt(Ser 473); β-actin, Cell Signaling] in 5% w/v BSA, 1× TBS and 0.1% Tween 20 at 4° C. under gentle shaking. Then, blots were washed three times for 10 min with 1× TBS, 0.1% Tween 20 and incubated for 1 h with secondary antibody (peroxidase-coupled anti rabbit in 1× TBS, 0.1% Tween 20). […] Band densitometric analysis was performed using Image Lab Software (Bio-Rad, Milan, Italy).
Evaluation of proautophagic activity: Expression of protein LC3-II, p62, and m-TOR, indicators of autophagy, were detected by western blotting, using Rapamycin as a positive control. In U87MG cell lines.

The next series concerns Rat microglia cells. The series is described as follows: Microglia protection from Aβ(1-42) induced injury (MTS assay). It is filed as cell-based. Particulars: 10 μM pre-treatment 24 h, then Aβ1-42 24 h. On the procedure: FIG. 7. Rat microglia cells were pre-treated with the compounds (10 μM) for 24 h. After washing, the cells were incubated with Aβ1-42 for 24 h. At the end of treatments, cell proliferation was measured by MTS assay. The data are expressed as percentages relative to untreated cells (control), which were set at 100%, and represent the mean±SEM of three independent experiments, each performed in triplicate. Statistical significance was determined using a one-way ANOVA followed by a Bonferroni post-test: *p<0.05 vs control; #p<0.05 vs cells treated with Aβ1-42.
Cell proliferation/viability assays on rat microglia cells. Rat microglia cells were isolated from mixed cell culture obtained from Sprague-Dawley rat cortex, by gentle physical shaking, as described. After isolation, cells were seeded into 96 well-plated with fresh culture media and pretreated with MT66 or native drug (10 μM) for 24 h; before washing and incubation with Aβ1-42 for 24 h. Following incubation time, cell viability was determined using the MTS assay. The absorbance of formazan was measured at […]. The results were calculated by subtracting the mean background from the values obtained from each test condition and were expressed as the percentage of the control (untreated cells).
Microglia protection from Aβ(1-42) induced injury. Microglia, together with astrocytes, forms the main active immune defense of the CNS. […]

[5] abbreviates: presence of 4 mM cysteine, 30 min preincubation, read-out: Ki, nM (+Cys 4 mM, 30 min).

`C1COCCN1.COc1ccc(P(=S)(S)N2CCOCC2)cc1` (centres unmarked) [GYY4137, reference compound]: the H2S-releasing properties entry in series [1] is given as “slow H2S-releasing”.
By Ki is commonly meant the equilibrium dissociation constant of an inhibitor or competing ligand from its target. Consider `CC12CC3CC(C)(C1)CC(N=C=S)(C3)C2` [MT66], for which, in the series with NMDAR (absence of cysteine, concentration not given), the “Percentage of inhibition of specific [3H]MK-801 binding (−Cys)” value is given as 28.0% ^b. For the same compound, the Ki at NMDAR (setting [5]) worked out at 458 ± 77.7 nM. Besides, in series [1], the H2S-releasing properties entry was “slow and L-cysteine-dependent H2S-releasing mechanism”. Besides, the “cell proliferation/viability after inflammatory insult” value in series [2] is reported as “exhibited neuroprotective effects during inflammation”. Also, the “ROS accumulation under inflammatory conditions” value in series [3] was “almost completely counteracted inflammatory-mediated effects”. For the same compound, the “Aβ(1-40) self-induced aggregation” value in series [4] is “induces a reduction”. In the series with U87MG cells, the “LC3II expression (LC3II/LC3I ratio)” value is “significant up-regulation”, the p62 expression entry is given as “decreased expressions”, the “p-mTOR expression (p-mTOR/mTOR ratio)” value is “decreased expressions” and the LC3II expression entry is listed as “remained almost unchanged”. Also, the “cell proliferation after Aβ1-42 oligomers” value in the series with Rat microglia cells is recorded as “completely restore cell proliferation”.
The term Kd denotes the equilibrium constant for the complex coming apart. For `CC12NC(Cc3ccccc31)c1ccccc12` (centres unmarked) [[^3H]MK-801], the Kd on NMDAR (rat cortex membranes, read-out: dissociation constant (Kd) of [3H]MK-801) is 4 nM.
On to `CC12CC3CC(C)(C1)CC(N)(C3)C2` [Memantine, reference compound], for which the Ki at NMDAR (absence of cysteine, 3 nM [3H]MK-801, rat cortex membranes, read-out: Ki, nM (−Cys)) is 955 ± 74.2 nM. For the same compound, at NMDAR (setting [5]), the Ki came to 329 ± 10.9 nM. For the same compound, in the series with U87MG cells, the “LC3II expression (LC3II/LC3I ratio)” value is reported as “significant up-regulation”, the p62 expression result was “decreased expressions”, the “p-mTOR expression (p-mTOR/mTOR ratio)” value is reported as “decreased expressions” and the LC3II expression result was “remained almost unchanged”. In the series on Rat microglia cells, the “cell proliferation after Aβ1-42 oligomers” value is given as “completely restore cell proliferation”.
